# Reference: US7625905B2, “Octahydro-pyrrolo[3,4-c]pyrrole CCR5 receptor antagonists” (Roche Palo Alto LLC, priority 2006, dated 2009)
# Legend:
# CCR5 [1] = biological target: T1, CCR5 (Homo sapiens, UniProt P51681); test: Human CCR5 receptor-ligand binding (RANTES) assay; parameters: expressed in transfected cells; conditions: 125I RANTES 0.1 nM, CHO-Gα16-hCCR5 cells
# Method: The construct was transfected into CHO-Gα16 cells by using Fugene Reagent (Roche).
# Adherent cells in […] tissue culture flask (˜90% confluent) were harvested using 1 mM EDTA in PBS (phosphate-buffered saline) without Ca^2+ and Mg^2+. Cells were washed twice with PBS containing no Ca^2+ and Mg^2+.
# Eighty μl CHO-Gα16-hCCR5 (1×10^6/ml) cells were added to 96 well plates.
# The compound dilutions were made in PBS, 1% BSA. Total reaction volume was 100 μl per well. The test compounds were added to the cells prior to the addition of radioligand.
# After incubation, the cells were harvested onto GF/C filter plates using Packard cell harvester. Filters were pretreated with 0.3% PEI/0.2% BSA for 30 min. The filter plate was washed rapidly 5 times with 25 mM HEPES, 500 mM NaCl, 1 mM CaCl2 and 5 mM MgCl2 adjusted to pH 7.1. Plates were dried in oven (70° C.) for 20 min, added with 40 μl scintillation fluid and sealed with Packard TopSeal-A. Packard Top Count was used to measure of the radioactivity for 1 min per well.
# Total binding was determined with control wells added with radioisotope and buffer and the non-specific binding was determined using an excess cold RANTES to some of the control wells. Specific binding was determined by subtracting the non-specific form total binding. […] IC50 values were determined using varying concentrations of the test ligand in triplicates and the data was analyzed using GraphPad Prism (GraphPad, San Diego, Calif.).
# CCR5 [2] = biological target: T1, CCR5; test: CCR5-mediated CCF (cell-cell fusion) assay, Hela-R5 / CEM-NKr-CCR5-Luc luciferase readout; assay type: cell-based; parameters: host or cells: CEM-NKr-CCR5-Luc cells, co-cultured with Hela-R5 cells expressing gp160 and Tat; conditions: Hela-R5 and CEM-NKr-CCR5-Luc co-culture 24 hrs
# Method: The capacity for novel compounds of the present invention to bind to the CCR5 receptor and thereby antagonize CCR5 function can be evaluated with assay systems known in the art.
# Hela-R5 cells (express gp160 from R5-tropic virus and HIV-1 Tat) were plated in 384 well white culture plates (BD Bioscience, Palo Alto, Calif.) at 7.5×10^3 cells per well in phenol red-free Dulbecco's Modified Eagle Medium (DMEM) supplemented with 10% FBS, 1× Pen-Strep, 300 μg/ml G418, 100 μg/ml hygromycin, and 1 μg/ml Doxycycline (Dox) (BD Bioscience, Palo Alto, Calif.), using Multimek (Beckman, Fullerton, Calif.) and incubated at 37° C. overnight to induce the expression of gp160. Ten μl diluted compounds in medium containing 5% DMSO were added to the cells, followed by the addition of CEM-NKr-CCR5-Luc (obtained from NIH AIDS Research & Reference Reagents Program) that expresses CD4 and CCR5 and carries a HIV-2 long terminal repeat (LTR)-driven luciferase reporter gene at 1.5×10^4 cells/15 μL/well and incubated for 24 hrs. At the end of co-culture, 15 μl of Steady-Glo luciferase substrate was added into each well, and the cultures were sealed and gently shaken for 45 min. The luciferase activity were measured for 10 sec per well as luminescence by using 16-channel TopCount NXT (PerkinElmer, Shelton, Conn.) with 10 min dark adaptation and the readout is count per second (CPS). For the drug interaction experiments, small molecule compounds or antibodies were serially diluted in serum-free and phenol red-free RPMI containing 5% dimethyl sulfoxide (DMSO) (CalBiochem, La Jolla, Calif.) and 1× Pen-Strep. Five μl each of the two diluted compound or mAb to be tested for drug-drug interactions were added to the Hela-R5 cells right before the addition of target cells.
# [3] = test system: collagen induced arthritis; conditions: collagen-induced arthritis model; cited from earlier work
# CCR5 [4] = biological target: T1, CCR5; test: Chemotaxis assay with L1.2hCCR5 cells; assay type: cell-based; parameters: expressed in transfected cells; conditions: Inhibition of RANTES stimulated chemotaxis
# From the text: A chemotaxis assay is a functional assay which measures the ability of a non-adherent cell line expressing human CCR5 receptor to migrate across a membrane in response to either test compounds or natural attractant ligand(s) (i.e., RANTES, MIP-1β). Generally, chemotaxis assays monitor the directional movement or migration of a suitable cell (such as a leukocyte (e.g., lymphocyte, eosinophil, basophil)) into or through a barrier (e.g., endothelium, a permeable filter membrane), toward, from a first surface of the barrier toward an opposite second surface containing attractant ligands. Membranes or filters provide convenient barriers to monitor the directional movement or migration of a suitable cell into or through a filter, toward increased levels of an attractant. […]
# After the incubation period, the cells are scraped off the filter and the plates are spun in a table top centrifuge at 2,000 rpm for 10 min. The filter is then removed and the density of the cells that have migrated to the bottom wells is detected using CyQUANT^R cell proliferation assay kit (Invitrogen) and the Spectra MAX GeminiXS plate reader (Molecular Devices) according to the manufacturers' instructions. Using the fluorescence measurements the percent migration is determined by % migration=[1−(max−obs)/(max−min)]×100. […] This is calculated with Excel Fit.
# T1 sequence (P51681 whole entry): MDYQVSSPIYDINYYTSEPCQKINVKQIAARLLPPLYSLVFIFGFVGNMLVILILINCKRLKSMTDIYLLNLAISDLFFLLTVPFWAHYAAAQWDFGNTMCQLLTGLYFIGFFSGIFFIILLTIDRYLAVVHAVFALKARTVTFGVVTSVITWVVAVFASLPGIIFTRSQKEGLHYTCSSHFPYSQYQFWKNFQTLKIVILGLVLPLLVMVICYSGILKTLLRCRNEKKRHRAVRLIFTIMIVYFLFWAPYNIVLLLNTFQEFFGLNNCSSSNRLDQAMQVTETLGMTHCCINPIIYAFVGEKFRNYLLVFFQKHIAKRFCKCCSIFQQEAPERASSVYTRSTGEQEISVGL
IC50 (CCR5 [1]),IC50 (CCR5 [2]),IC50 (CCR5 [4]),Compound,incidence and severity of arthritis [3],infiltration of inflammatory CCR5+ T-cells into the joint [3]
8.2 nM,202 nM,,"1-(4-{3-[5-(4,6-Dimethyl-pyrimidine-5-carbonyl)-hexahydro-pyrrolo[3,4-c]pyrrol-2-yl]-1-phenyl-propyl}-piperidin-1-yl)-2-methyl-propan-1-one [V-15]",,
835 nM,835 nM,,"Cc1ncnc(C)c1C(=O)N1CC2CN(CCC3(c4ccccc4)CCN(C(=O)OC(C)(C)C)CC3)CC2C1 (stereo not shown) [I-1, tert-Butyl 4-{2-[5-(4,6-dimethyl-pyrimidine-5-carbonyl)-hexahydro-pyrrolo[3,4-c]pyrrol-2-yl]-ethyl}-4-phenyl-piperidine-1-carboxylate]",,
77.6 nM,306 nM,,Cc1ncnc(C)c1C(=O)N1CC2CN(CCC3(c4cccc(F)c4)CCN(C(=O)c4ccccc4)CC3)CC2C1 (stereo not shown) [I-3],,
500 nM,2500 nM,,Cc1ncnc(C)c1C(=O)N1CC2CN(CCC3(c4ccccc4)CCN(C(=O)c4ccc(S(N)(=O)=O)cc4)CC3)CC2C1 (stereo not shown) [I-9],,
48.4 nM,1200 nM,,Cc1ncnc(C)c1C(=O)N1CC2CN(CCC3(c4ccccc4)CCN(C(=O)c4cccc(S(=O)(=O)N(C)C)c4)CC3)CC2C1 (stereo not shown) [I-14],,
50.9 nM,393 nM,,Cc1ncnc(C)c1C(=O)N1CC2CN(CCC3(c4cccc(F)c4)CCN(C(=O)c4cccc(S(=O)(=O)N(C)C)c4)CC3)CC2C1 (stereo not shown) [I-19],,
27.7 nM,136 nM,,Cc1ncnc(C)c1C(=O)N1CC2CN(CCC3(c4ccccc4)CN(C(=O)CC4CCCC4)C3)CC2C1 (stereo not shown) [II-6],,
51.5 nM,486 nM,,Cc1ncnc(C)c1C(=O)N1CC2CN(CCC3(c4ccccc4)CN(C(=O)C4(C(F)(F)F)CC4)C3)CC2C1 (stereo not shown) [II-15],,
105 nM,,,Cc1ncnc(C)c1C(=O)N1CC2CN(CCC3(c4ccccc4)CN(S(=O)(=O)C(C)C)C3)CC2C1 (stereo not shown) [II-19],,
27.1 nM,458 nM,,"Cc1ncnc(C)c1C(=O)N1CC2CN(CCC3(c4ccccc4)CN(S(=O)(=O)C4CCCC4)C3)CC2C1 (stereo not shown) [II-22, {5-[2-(1-Cyclopentanesulfonyl-3-phenyl-azetidin-3-yl)-ethyl]-hexahydro-pyrrolo[3,4-c]pyrrol-2-yl}-(4,6-dimethyl-pyrimidin-5-yl)-methanone]",,
11.3 nM,2.6 nM,,Cc1cc(=O)oc(C)c1C(=O)N1CC2CN(CCC3(c4ccccc4)CN(C(=O)C4CCC(F)(F)CC4)C3)CC2C1 (stereo not shown) [II-33],,
18.8 nM,9.5 nM,,Cc1ncnc(C)c1C(=O)N1CC2CN(CCC3(c4ccccc4)CN(C(=O)C4CCC(F)(F)CC4)C3)CC2C1 (stereo not shown) [II-39],,
68.8 nM,360 nM,,Cc1cc(C#N)nc(C)c1C(=O)N1CC2CN(CCC3(c4ccccc4)CCN(C(=O)C(C)(C)C)C3)CC2C1 (stereo not shown) [III-8],,
244 nM,458 nM,,Cc1ncnc(C)c1C(=O)N1CC2CN(CCC(c3ccccc3)C3CN(C(=O)C(C)C)C3)CC2C1 (stereo not shown) [IV-10],,
38.6 nM,4.2 nM,,Cc1ncnc(C)c1C(=O)N1CC2CN(CCC(c3cccc(F)c3)C3CN(S(=O)(=O)c4cccc(F)c4)C3)CC2C1 (stereo not shown) [IV-14],,
,,,Cc1ccc(-c2ccc3c(c2)C=C(C(=O)Nc2ccc(C[N+](C)(C)C4CCOCC4)cc2)CCC3)cc1.[Cl-] [TAK-779],reduce both the incidence and severity of arthritis,inhibited
102 nM,744 nM,,"COC(=O)N1CCC(C(CCN2CC3CN(C(=O)c4c(C)ncnc4C)CC3C2)c2ccccc2)CC1 (stereo not shown) [V-7, 4-{3-[5-(4,6-Dimethyl-pyrimidine-5-carbonyl)-hexahydro-pyrrolo[3,4-c]pyrrol-2-yl]-1-phenyl-propyl}-piperidine-1-carboxylic acid methyl ester]",,
,,765 nM,Cc1ncnc(C)c1C(=O)N1CC2CN(CCC(c3ccccc3)C3CCN(S(C)(=O)=O)CC3)CC2C1 (stereo not shown) [V-12],,
